From patent US20060216336A1, “Transdermal therapeutic system for Parkinson's Disease” (priority 2002, published 2006)

Experiment: Multiple dose trial with rotating patch application sites in early-stage Parkinson's disease: rotigotine pharmacokinetics (Example 4)
Settings: human, in vivo; for concentration at […]: 23.5 H
From the text: Each day, a fresh patch was placed on a new skin site (abdomen, flank, upper arm, shoulder, thigh, hip) in a rotating order. The silicone transdermal patches were made in accordance with the teachings of U.S. Patent Application Publication No. US 2003/0026830 at paragraphs 38-42, U.S. Patent Application Publication No. US 2003/0027793 at paragraphs 37-41 and U.S. Pat. No. 6,884,434, columns 5-6, Example 2 and comprised the following layers and components:
The trial consisted of an Eligibility Assessment (EA), a 24-day Titration Phase (4.5 to 18.0 mg/day doses; incremental increases of 4.5mg/day every 6 days), a 6-day Maintenance Phase (18.0 mg/day dose), a 6-day De-escalation Phase (13.5/9.0/4.5mg/day decreasing dose every 2 days), and a Safety Follow-Up visit 2 days following the last dose.
The silicone transdermal patches were made in accordance with the teachings of U.S. Patent Application Publication No. US 2003/0026830 at paragraphs 3842 and U.S. Patent Application Publication No. US 2003/0027793 at paragraphs 3741 comprised the following layers and components as disclosed above
The 18.0 mg/day dose used 2×20 cm^2 patches. Initial doses were 4.5 mg/day with weekly increases of 4.5 mg/day to a maximum target dose of 18.0 mg/day.

[1] = rotigotine plasma concentration Geo. Mean
[2] = rotigotine plasma concentration Max
[3] = rotigotine plasma concentration Mean
[4] = rotigotine plasma concentration Median
[5] = rotigotine plasma concentrations, Geo. Mean
[6] = rotigotine plasma concentrations, Mean
[7] = rotigotine plasma concentrations, Median

CCCN(CCc1cccs1)[C@H]1CCc2c(O)cccc2C1 [rotigotine, (6S)-6{propyl[2-(2-thienyl)ethyl]amino}-5,6,7,8-tetrahydro-1-naphthalenol]
concentration at […] (18 mg/day, rotigotine plasma concentration Min, Thigh, Days 27 & 30 Combined): 0.152 ng/mL
concentration at […] (18 mg/day, rotigotine plasma concentration Min, Upper Arm, Day 27): 0.129 ng/mL
concentration at […] (18 mg/day, rotigotine plasma concentration Min, Upper Arm, Day 30): 0.347 ng/mL
concentration at […] (18 mg/day, rotigotine plasma concentration Min, Upper Arm, Days 27 & 30 Combined): 0.129 ng/mL
concentration at […] (18 mg/day, rotigotine plasma concentrations, Geo. Mean, Application Site = Abdomen, Day 27): 0.806 ng/mL
concentration at […] (18 mg/day, rotigotine plasma concentrations, Geo. Mean, Application Site = Abdomen, Day 30): 0.545 ng/mL
concentration at […] (18 mg/day, rotigotine plasma concentrations, Geo. Mean, Application Site = Abdomen, Days 27 & 30 Combined): 0.676 ng/mL
concentration at 7 h (18 mg/day, rotigotine plasma concentrations, Geo. Mean, Application Site = Flank, Days 27 & 30 Combined, 7 H): 0.681 ng/mL
concentration at […] (18 mg/day, rotigotine plasma concentrations, Geo. Mean, Application Site = Flank, Days 27 & 30 Combined): 0.81 ng/mL
concentration at […] (18 mg/day, rotigotine plasma concentrations, Mean, Application Site = Abdomen, Day 27): 0.929 ng/mL
concentration at […] (18 mg/day, rotigotine plasma concentrations, Mean, Application Site = Abdomen, Day 30): 0.613 ng/mL
concentration at […] (18 mg/day, rotigotine plasma concentrations, Mean, Application Site = Abdomen, Days 27 & 30 Combined): 0.787 ng/mL
concentration at […] (18 mg/day, rotigotine plasma concentrations, Mean, Application Site = Flank, Days 27 & 30 Combined): 1.1 ng/mL
concentration at […] (18 mg/day, rotigotine plasma concentrations, Median, Application Site = Abdomen, Day 30): 0.415 ng/mL
concentration at […] (18 mg/day, rotigotine plasma concentrations, Median, Application Site = Abdomen, Days 27 & 30 Combined): 0.677 ng/mL
concentration at […] (18 mg/day, rotigotine plasma concentrations, Median, Application Site = Flank, Days 27 & 30 Combined): 0.714 ng/mL
AUC(0-t) (AUC 0-t, ss): 23.8 ng·h/mL
concentration at 27 day (Average Concentration): 0.882 ng/mL
concentration at 30 day (Average Concentration): 0.975 ng/mL
concentration at 5 h [1]: 0.971 ng/mL
concentration at 6 h [1]: 0.837 ng/mL
concentration at 7 h [1]: 0.993 ng/mL
concentration at 14 h [1]: 1.15 ng/mL
concentration at 16 h [1]: 1.15 ng/mL
concentration at 18 h [1]: 1.16 ng/mL
concentration at 20 h [1]: 1.14 ng/mL
concentration at 22 h [1]: 0.815 ng/mL
concentration at 10 h [2]: 1.98 ng/mL
concentration at 16 h [2]: 2.53 ng/mL
concentration at 18 h [2]: 3.25 ng/mL
concentration at 22 h [2]: 1.77 ng/mL
concentration at 6 h [3]: 0.911 ng/mL
concentration at 7 h [3]: 1.08 ng/mL
concentration at 10 h [3]: 1.17 ng/mL
concentration at 14 h [3]: 1.26 ng/mL
concentration at 16 h [3]: 1.28 ng/mL
concentration at 18 h [3]: 1.32 ng/mL
concentration at 20 h [3]: 1.4 ng/mL
concentration at 22 h [3]: 0.904 ng/mL
concentration at 5 h [4]: 0.956 ng/mL
concentration at 14 h [4]: 1.21 ng/mL
concentration at 16 h [4]: 1.06 ng/mL
concentration at 18 h [4]: 1.17 ng/mL
concentration at 20 h [4]: 1.04 ng/mL
concentration at 22 h [4]: 0.734 ng/mL
concentration at 10 h [5]: 0.816 ng/mL
concentration at 12 h [5]: 0.848 ng/mL
concentration at 14 h [5]: 0.84 ng/mL
concentration at 16 h [5]: 1 ng/mL
concentration at 18 h [5]: 1.01 ng/mL
concentration at 20 h [5]: 1.02 ng/mL
concentration at 22 h [5]: 0.91 ng/mL
concentration at 10 h [6]: 0.909 ng/mL
concentration at 12 h [6]: 0.911 ng/mL
concentration at 14 h [6]: 0.931 ng/mL
concentration at 16 h [6]: 1.07 ng/mL
concentration at 18 h [6]: 1.06 ng/mL
concentration at 20 h [6]: 1.08 ng/mL
concentration at 22 h [6]: 1.01 ng/mL
concentration at 10 h [7]: 0.766 ng/mL
concentration at 12 h [7]: 0.763 ng/mL
concentration at 14 h [7]: 0.816 ng/mL
concentration at 16 h [7]: 0.904 ng/mL
concentration at 18 h [7]: 1.08 ng/mL
concentration at 20 h [7]: 0.962 ng/mL
concentration at 22 h [7]: 0.804 ng/mL
